Reference: article PMC12048343, “Discovery of a small molecule secreted clusterin enhancer that improves memory in Alzheimer’s disease mice” (npj Drug Discovery, 2025)
Where two headings read alike, the source gives them in different places.

How the values were obtained:
[1] = system: sCLU secreted from human U-87 MG glioblastoma cells; assay: Human sCLU AlphaLISA on supernatant of U-87 MG cells (HTS, re-test, dose response); type: cell-based; conditions: Homo sapiens; U-87 MG cells, 30 h, AlphaLISA of supernatant; read-out: EC50 for sCLU increase
Protocol: Cell culture supernatant (2 μL) was added to a 384-well proxy plate preloaded with AlphaLISA HiBlock buffer (2 µL, 1X, CAT#AL004C, Perkin Elmer). Then an anti-sCLU antibody mixture (2 µL, mAb J84, biotinylated (10 nM, Cat# 3717-6-1000, Mabtech) and mAb CLU aa 22-227 (Cat#AF7084, R&D Systems), Acceptor bead conjugated (50 µg/mL, Cat#6772001, Perkin Elmer)) was added and incubated at room temperature for 1 hour. AlphaScreen Streptavidin Donor beads (2 µL, Cat#6760002S, Perkin Elmer) were added, incubated for an additional 30 min in the dark, and the plate was read in an Envision plate reader.
Human glioblastoma U-87 MG cells were proliferated in EMEM with 10% FBS and 1% P/S (complete medium) in 10 cm dishes until approximately 90% confluent. Following trypsinization, a suspension of 2 × 10^5 cells/mL (25 µL) were added to 384-well plates containing complete medium (25 µL) and library compounds from 9 plates (5 µM). After incubation for 30 h at 37 °C and 5% CO2, 2 μL of cell culture supernatant were analyzed via human sCLU AlphaLISA as described above. Cell culture medium and cells were added to the 384-well plates using the MultiDrop. The BioMek FX was used to pin the drugs and transfer the cell culture supernatant. The MANTIS liquid handler was used to added human sCLU AlphaLISA reagents.
Human glioblastoma U-87 MG cells were proliferated in EMEM with 10% FBS and 1% P/S (complete medium) in 10 cm dishes until approximately 90% confluent. […] After incubation for 30 hours at 37 °C and 5% CO2, 2 μL of cell culture supernatant were analyzed via human sCLU AlphaLISA as described above.

[2] = biological target: BRD4 (Homo sapiens, UniProt O60885); assay: BRD4 inhibition assay; type: biochemical
[3] = biological target: BRD2 (Homo sapiens, UniProt P25440); assay: BRD2 inhibition assay; type: biochemical
Chain of BRD2 (P25440 whole entry): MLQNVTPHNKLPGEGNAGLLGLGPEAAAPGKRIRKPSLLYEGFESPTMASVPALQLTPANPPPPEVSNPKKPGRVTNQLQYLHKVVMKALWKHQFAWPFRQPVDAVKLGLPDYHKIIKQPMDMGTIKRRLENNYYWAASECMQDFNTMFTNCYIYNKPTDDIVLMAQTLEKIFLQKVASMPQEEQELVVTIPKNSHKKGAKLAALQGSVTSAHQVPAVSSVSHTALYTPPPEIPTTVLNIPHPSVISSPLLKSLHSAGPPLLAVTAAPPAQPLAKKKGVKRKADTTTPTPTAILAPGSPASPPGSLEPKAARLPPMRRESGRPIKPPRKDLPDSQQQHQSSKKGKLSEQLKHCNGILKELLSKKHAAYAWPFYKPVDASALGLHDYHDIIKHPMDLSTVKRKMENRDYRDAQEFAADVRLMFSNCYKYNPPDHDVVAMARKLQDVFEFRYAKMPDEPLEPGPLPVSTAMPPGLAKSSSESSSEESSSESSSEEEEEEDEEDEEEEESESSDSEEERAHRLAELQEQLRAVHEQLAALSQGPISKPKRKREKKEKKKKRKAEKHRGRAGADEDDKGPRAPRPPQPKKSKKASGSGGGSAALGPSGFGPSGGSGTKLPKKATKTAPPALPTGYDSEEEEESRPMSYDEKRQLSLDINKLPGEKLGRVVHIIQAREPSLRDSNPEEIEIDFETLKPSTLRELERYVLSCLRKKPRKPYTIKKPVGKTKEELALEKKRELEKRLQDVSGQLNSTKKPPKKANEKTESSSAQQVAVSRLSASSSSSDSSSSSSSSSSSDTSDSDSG

[4] = Brain tissue binding assay (dialysis); type: in vitro ADME
Protocol: Brain tissue was homogenized in PBS (pH 7.4) (1: 3 weight(mg)/volume(µL)) and the protein concentration was determined using the Micro BCA™ Protein Assay Kit (Thermo Fisher Scientific, Cat#23235). Brain homogenate was clarified and diluted to 20 mg/mL in PBS (pH 7.4). Either brain homogenate or plasma was and added to Slide-A-Lyzer™ MINI Dialysis Devices, 10 K MWCO dialysis cups (Thermo Fisher Scientific, Cat#PI88401) in a 48-well plate containing PBS (500 µL; pH 7.4). 1 µL of 1 mM compound was added to the brain homogenate (Final Concentration: 2 µM compound, 0.5% DMSO) and incubated on a rocker for 4.5 hours at 37 °C. 50 µL of brain homogenate or plasma (within the dialysis cup) and PBS (within the 48-well plate) were transferred to new microcentrifuge tubes containing 400 µL of quenching reagent (100% Acetonitrile) containing internal standard. Solutions were clarified by centrifugation (16,000 x g, 5 min), and the supernatants were transferred to new tubes and lyophilized. Samples were reconstituted in 100 µL of 50/50/0.1 (Water/Acetonitrile/Formic Acid) prior to analysis via liquid chromatography-tandem mass spectrometry (LC-MS/MS). The % of the unbound drug (fu,bound) was calculated using the following equation:
% Bound = [1− (PBS chromatographic peak area/ brain homogenate or plasma chromatographic peak area)] x 100

[5] = Blood-Brain Barrier (BBB) permeability assay (IAM column, Pm); type: in vitro ADME; conditions: pH 7.4; Pm > 1.0 = CNS+
Protocol: A liquid chromatography-ultraviolet/visible spectroscopy (LC-UV/Vis) assay was performed on a 1290 Infinity HPLC system (Agilent Technologies) with an HPLC column containing immobilized phosphatidylcholine (IAM.PC.DD, Regis Technologies, Cat#774011, 5 µm 300 Å 100 ×4.6 mm). The HPLC method was a mixture of 6.7 mM phosphate buffer saline (pH 7.4; solvent A) and acetonitrile (solvent B), and a gradient was used for the elution of the compounds (min/%B: 0/20, 20/60, 21/20, 30/20). The retention time of the compound (tr) and void volume time of the column (t0) were recorded. Blood-brain barrier (BBB) permeability (Pm) was calculated using the following equations as described by Yoon et al. (10.1177/1087057105281656):
KIAM = (tr − t0) / t0; Pm = (KIAM / MW^4) x 10^10
Compounds with a Pm > 1.0 were determined to be BBB permeable (CNS + ) at pH 7.

[6] = system: SH-SY5Y neuronal cells; assay: Oxygen consumption rate in SH-SY5Y cells; type: cell-based, human; conditions: 24 h, 8, 40 and 200 nM, dose-dependent
[7] = brain homogenate 20 mg/mL, 2 µM compound, dialysis 4.5 hours, 37 °C

| Compound | EC50 [1] [nM] | IC50 [2] [nM] | IC50 [3] [nM] | Brain Tissue Binding [4, 7] [% bound] | PAMPA Pm [5] | Brain Tissue Binding [4] [%] | oxygen consumption rate [6] |
| --- | --- | --- | --- | --- | --- | --- | --- |
| Cc1sc2c(c1C)C(c1ccc(Cl)cc1)=N[C@@H](CC(=O)OC1COC1)c1nnc(C)n1-2 [DDL-356] | 178 | 23 | 158 | 57 | 0.96 |  |  |
| Cc1sc2c(c1C)C(c1ccc(Cl)cc1)=N[C@@H](CC(=O)OC1CC1)c1nnc(C)n1-2 [DDL-357] | 223 | 20 | 161 | 75 | 1.66 | 75.3 | increased the oxygen consumption rate |
